The conditions of data set [1]: cited from earlier work.
Data set [2] can be described thus: Human dosimetry in the Phase I study. It is filed as in vivo. The note with it: i.v. administration of 370 MBq. The source says:
For PET diagnostic radiopharmaceuticals, only a single administration is required, usually intravenously. The investigational PET radiopharmaceutical [^18F]CTT1057 will be administered accordingly, as a single intravenous (i.v.) dose of approximately 370 MBq (266-407 MBq). […] Eur J Nucl Med Mol Imaging; 42:328-54). Human dosimetry was studied in the Phase I study. The effective dose was estimated at 0.023±0.007 mSv/MBq, which is in line as well with the effective dose of the commercial product [18F]FDG (0.019 mSv/MBq) according to the EANM guideline (Boellaard R, Delgado-Bolton R, Oyen WJG, et al (2015) FDG PET/CT: EANM procedure guidelines for tumour imaging: version 2.0. Eur J Nucl Med Mol Imaging; 42:328-54) and in other publications (0.020-0.025 mSv/MBq) (Kaushik A, Jaimini A, Tripathi M, et al (2015) Estimation of radiation dose to patients from (18) FDG whole body PET/CT investigations using dynamic PET scan protocol. Indian J Med Res; 142:721-31), as well as the effective dose of other PSMA PET agents (Behr SC, Aggarwal R, VanBrocklin HF, et al (2019) Phase I Study of CTT1057, an 18F-Labeled Imaging Agent with Phosphoramidate Core Targeting Prostate-Specific Membrane Antigen in Prostate Cancer. J Nucl Med; 60(7):910-6). The radiation dose estimated from an i.v. administration of 370 MBq of [18F]CTT1057 is 8.51 mSV. […]

Data set [3] has as its target T1, PSMA (Homo sapiens, UniProt Q04609). The note with it: phosphoramidate scaffold, irreversible binding; cited from earlier work.
For data set [4] the following is noted: Phase I, 20 prostate cancer patients (n=5 primary staging, n=15 mCRPC), approx. 370 MBq i.v.; cited from earlier work.
The conditions of data set [5]: human dosimetry, Phase I study; cited from earlier work.
For data set [6] the following is noted: versus urea-based PET compounds; cited from earlier work.
Data set [7] deals with T1, PSMA. Also noted: The [^18F]CTT1057 Phase-I study in 20 prostate cancer patients; from tissue; host or cells: tumour lesions in prostate cancer patients, imaged in vivo by PET; results quoted from Behr et al 2019 and Behr et al 2017. The following applies: cited from earlier work.
The conditions of data set [8]: retrospective analysis of 1007 participants; cited from earlier work.
The subject of another data set is prostate cancer tumors. The note with it: cited from earlier work.

This is an account of results in patent US20240181092A1, “DIAGNOSTIC METHODS OF PROSTATE CANCER” (NOVARTIS AG, priority 2021, published 2024).

“Also recorded” adds a separate entry of the source. Like-named read-outs stand apart in the source and are kept apart here.

T1 sequence (Q04609 whole entry): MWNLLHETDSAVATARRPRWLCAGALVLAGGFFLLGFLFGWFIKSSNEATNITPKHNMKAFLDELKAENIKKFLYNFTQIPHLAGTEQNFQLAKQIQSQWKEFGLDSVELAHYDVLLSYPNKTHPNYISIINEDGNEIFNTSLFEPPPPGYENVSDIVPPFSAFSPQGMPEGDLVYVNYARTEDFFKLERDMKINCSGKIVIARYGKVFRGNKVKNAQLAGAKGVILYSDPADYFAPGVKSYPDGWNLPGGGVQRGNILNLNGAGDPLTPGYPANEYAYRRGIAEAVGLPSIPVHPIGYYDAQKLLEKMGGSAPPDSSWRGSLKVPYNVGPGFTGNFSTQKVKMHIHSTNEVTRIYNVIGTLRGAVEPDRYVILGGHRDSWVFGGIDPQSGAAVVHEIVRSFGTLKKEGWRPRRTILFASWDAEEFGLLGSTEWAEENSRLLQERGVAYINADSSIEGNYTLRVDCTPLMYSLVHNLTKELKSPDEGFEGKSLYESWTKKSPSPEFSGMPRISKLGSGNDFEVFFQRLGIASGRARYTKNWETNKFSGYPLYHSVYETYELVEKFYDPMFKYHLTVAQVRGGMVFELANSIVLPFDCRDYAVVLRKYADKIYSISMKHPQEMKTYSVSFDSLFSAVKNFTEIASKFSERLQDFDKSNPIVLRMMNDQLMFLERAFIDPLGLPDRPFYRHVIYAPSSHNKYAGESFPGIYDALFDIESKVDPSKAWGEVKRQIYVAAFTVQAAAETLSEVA

On to `OC[C@H]1OC(O)[C@H]([18F])[C@@H](O)[C@@H]1O` (stereo partly shown) [[18F]FDG, [18F]Fluorodeoxyglucose], for which the effective dose in data set [1] (according to the EANM guideline) is given as 0.019 mSv/MBq; in data set [1] (other publications (Kaushik et al 2015)), 0.020-0.025 mSv/MBq.

Take `O=C(O)CC[C@H](NP(=O)(O)OCCC[C@H](NC(=O)CC[C@H](NC(=O)CCCCCNC(=O)c1ccc([18F])cc1)C(=O)O)C(=O)O)C(=O)O` [[^18F]CTT1057]: the “radiation dose estimated from an i.v. administration” value in [2] is 8.51 mSV. Also, the “binding affinity to PSMA” value at PSMA [3] is reported as “irreversibly binds to PSMA with high nanomolar affinity”. In data set [4], the safety and tolerability result was “acceptable safety profile without any radiotracer-related adverse reactions; also recorded: safe and well tolerated; also recorded: acceptable safety profile, without any radiotracer-related adverse reactions; also recorded: study has shown an acceptable safety profile without any radiotracer-related”. The effective dose in [5] is on record as 0.023±0.007 mSv/MBq. In addition, the “exposure to kidneys and salivary glands” value in data set [6] was “lower exposure to kidneys and salivary glands”. Besides, the “sensitivity of detection of metastatic lesions versus conventional imaging” value at PSMA [7] (Phase I study) is “higher sensitivity”. Further, the “image quality versus [68Ga]Ga-PSMA-11 PET” value at PSMA [7] (another smaller study (Behr et al 2017)) was “qualitatively similar”. For the same molecule, the “image quality on a Visual Analog Scale (VAS) of 1 to 100” value on PSMA [7] (approx. 370 MBq i.v., 1=nondiagnostic, 100=perfect study, rated by 2 Nuclear Medicine physicians) is 76±5.4.

On to `O=C([O-])CN(CCN(CC(=O)[O-])Cc1cc(CCC(=O)NCCCCCC(=O)NCCCC[C@H](NC(=O)N[C@@H](CCC(=O)O)C(=O)O)C(=O)O)ccc1[O-])Cc1cc(CCC(=O)O)ccc1[O-].[68Ga+3].[OH3+]` [[^68Ga]Ga-PSMA-11], for which the “tolerability, adverse events following infusion” value in data set [8] is recorded as “well tolerated with no adverse events following infusion”. The “detection rates versus [18F]Fluciclovine” value with prostate cancer tumors (after radical prostatectomy, PSA <2.0 ng/ml, per-patient and per-region basis (Calais et al 2018)) is reported as “superior”. In the data set on prostate cancer tumors (larger prospective head-to-head study (Pernthaler et al 2019)), the “overall detection rate for prostate cancer recurrence versus [18F]Fluciclovine” value is recorded as “no statistical differences”.
